T1: SapC (saposin C) (Homo sapiens, UniProt P07602)
T1 sequence (P07602 311-390 limits assumed): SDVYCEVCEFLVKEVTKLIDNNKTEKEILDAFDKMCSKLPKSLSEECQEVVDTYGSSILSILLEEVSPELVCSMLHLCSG

T2: acid β-glucosidase (GCase), Velaglucerase alfa (human, UniProt P04062 40-536, mannosyl-terminated oligosaccharide chains)
T2 sequence (looked up): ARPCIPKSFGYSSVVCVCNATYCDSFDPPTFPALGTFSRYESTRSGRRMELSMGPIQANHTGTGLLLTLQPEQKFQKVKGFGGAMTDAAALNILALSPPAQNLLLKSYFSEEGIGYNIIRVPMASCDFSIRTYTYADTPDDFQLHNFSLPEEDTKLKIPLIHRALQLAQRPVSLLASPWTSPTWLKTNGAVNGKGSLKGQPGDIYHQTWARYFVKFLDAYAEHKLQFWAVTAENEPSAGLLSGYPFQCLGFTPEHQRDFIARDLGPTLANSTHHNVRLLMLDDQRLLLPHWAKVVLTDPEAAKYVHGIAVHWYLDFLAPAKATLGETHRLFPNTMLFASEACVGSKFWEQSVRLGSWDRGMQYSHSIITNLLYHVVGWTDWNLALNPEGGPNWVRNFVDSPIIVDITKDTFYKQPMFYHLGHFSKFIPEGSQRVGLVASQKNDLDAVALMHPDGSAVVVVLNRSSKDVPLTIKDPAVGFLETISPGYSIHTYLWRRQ

B1: saposin C (SapC) (natural protein, UniProt P07602 311-390, looked up)
chain: T1 sequence (P07602 311-390 limits assumed)

What was measured:
SapC (saposin C) = molecular target: T1, SapC (saposin C); assay: microscale thermophoresis; assay type: binding
[1] = molecular target: T2, acid β-glucosidase (GCase), …; assay: MST

Molecule	Kd (SapC (saposin C)) [nM]	Kd [1] [nM]
CCCCCCCC/C=C\CCCCCCCC(=O)OC[C@H](COP(=O)(O)OC[C@H](N)C(=O)O)OC(=O)CCCCCCC/C=C\CCCCCCCC [DOPS]	13.5 ± 1.65	
B1		29.4 ± 1.91
